The text below walks through data of patent US20240417412A1, “HETEROCYCLIC COMPOUNDS AND METHODS OF USE” (AMGEN INC., priority 2022, published 2024).

Assay [1] addresses KRAS G12D (Homo sapiens, UniProt P01116, G12D). The assay can be described thus: KRAS G12D TR-FRET Assay. The conditions noted are these: His-tagged KRAS G12D, biotinylated KRPep-2d, read-out: KRAS G12D Binding IC50. As for the experimental part:
The plate was incubated for 30 minutes at room temperature. Biotinylated KRPep-2d substrate (Amgen) was diluted to 20 nM in Assay Buffer and 2 uL was added to all wells and incubated for 1 hour at room temperature. Detection Reagent (0.4 nM LANCE Eu-W1024 Anti-6×His (Perkin Elmer AD0401), 5 nM streptavidin-d2 (Cisbio 610SADLA)) was prepared in Assay Buffer, then 4 μL was added to the plate and incubated for 1 hour at room temperature.
In general terms: Time-resolved FRET reads energy transfer from a long-lived donor to a nearby acceptor.

For assay [2], the target named is KRAS G12D (Homo sapiens, UniProt P01116, C118A/G12D). The assay can be described thus: KRAS G12D Coupled Nucleotide Exchange Assay. Type of assay: biochemical. The note with it: GDP-bound KRAS G12D/C118A, 2 hours pre-incubation, SOS-mediated nucleotide exchange, AlphaScreen. As for the experimental part: The assay plates were then read on a PerkinElmer EnVision Multilabel Reader, using AlphaScreen® technology, and data were analyzed using a 4-parameter logistic model to calculate IC50 values.
Sequence of KRAS G12D (Homo sapiens, UniProt P01116, C118A/G12D) (P01116 1-169 isoform P01116-2 G12D/C118A): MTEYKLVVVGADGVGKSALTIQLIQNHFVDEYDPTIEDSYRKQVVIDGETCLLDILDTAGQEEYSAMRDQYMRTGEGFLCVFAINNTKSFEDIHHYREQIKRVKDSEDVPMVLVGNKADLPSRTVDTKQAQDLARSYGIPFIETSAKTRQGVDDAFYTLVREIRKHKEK
For orientation: Alpha assays give light when donor and acceptor beads are brought close together.

The test system of assay [3] is p-ERK (AsPC-1 cells). The assay can be described thus: Phospho-ERK1/2 MSD Assay. Type of assay: cell-based. Here is the method: Sixteen hours prior to compound treatment, AsPC-1 cells were seeded in 96-well cell culture plates at a density of 25,000 cells/well and incubated at 37° C., 5% CO2. A compound dose-response titration was diluted in growth media, added to appropriate wells of a cell culture plate, and then incubated at 37° C., 5% CO2 for 2 hours. […] Phosphorylation of ERK1/2 in compound-treated lysates was assayed using Phospho-ERK1/2 Whole Cell Lysate kits (Meso Scale Discovery K151DWD) according to the manufacturer's protocol. Assay plates were read on a Meso Scale Discovery Sector Imager 6000, and data were analyzed using a 4-parameter logistic model to calculate IC50 values.

Setting [4] is: Homo sapiens, ASPC1, 2 h, read-out: 2 h p-ERK (AsPC-1 cells), IC50 (μM), AsPC-1 cells, 2 hours compound treatment.
Setting [5] is: read-out: 2 h p-ERK (AsPC-1 cells), IC50, AsPC-1 cells, 2 hours compound treatment.

The structures appear in SMILES notation. Read-outs that look alike come from different tables or passages of the source.

Sequence of KRAS G12D (Homo sapiens, UniProt P01116, G12D) (P01116 1-188 isoform P01116-2 G12D): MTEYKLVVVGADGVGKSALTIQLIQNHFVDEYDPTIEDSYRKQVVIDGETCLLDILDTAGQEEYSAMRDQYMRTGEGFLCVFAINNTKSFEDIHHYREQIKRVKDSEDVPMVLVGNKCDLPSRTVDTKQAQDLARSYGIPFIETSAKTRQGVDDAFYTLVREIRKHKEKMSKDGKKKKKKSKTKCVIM

Regarding `CCc1c(F)ccc2cc(O)cc(-c3ncc4c(N5CCCC6(CC(=O)N6C)C5)nc(OC[C@@]56CCCN5C[C@H](F)C6)nc4c3F)c12` (stereo partly drawn) [Example 6, 6-(7-(8-Ethyl-7-fluoro-3-hydroxynaphthalen-1-yl)-8-fluoro-2-(((2R,7aS)-2-fluorotetrahydro-1H-pyrrolizin-7a(5H)-yl)methoxy)pyrido[4,3-d]pyrimidin-4-yl)-1-methyl-1,6-diazaspiro[3.5]nonan-2-one], the IC50 in assay [1] was found to be 8 nM; in assay [2], 10 nM; in assay [3] (setting [4]), 2.4 µM.

As for `CCc1c(F)ccc2cc(O)cc(-c3ncc4c(N5CCC6(CC5)CNC(=O)O6)nc(OC[C@@]56CCCN5C[C@H](F)C6)nc4c3F)c12` [Example 41, 8-(7-(8-Ethyl-7-fluoro-3-hydroxynaphthalen-1-yl)-8-fluoro-2-(((2R,7aS)-2-fluorotetrahydro-1H-pyrrolizin-7a(5H)-yl)methoxy)pyrido[4,3-d]pyrimidin-4-yl)-1-oxa-3,8-diazaspiro[4.5]decan-2-one], the concentration for half-maximal inhibition (IC50) in assay [1] was 19 nM; in assay [2] it was 10 nM; in assay [3] (setting [4]) it was > 10 µM.

On to `CCc1c(F)ccc2cc(O)cc(-c3ncc4c(N5CC(C)(O)CC6(CC6)C5)nc(OC[C@@]56CCCN5C[C@H](F)C6)nc4c3F)c12` (stereo partly drawn) [Example 19, 5-(7-(8-Ethyl-7-fluoro-3-hydroxynaphthalen-1-yl)-8-fluoro-2-(((2R,7aS)-2-fluorotetrahydro-1H-pyrrolizin-7a(5H)-yl)methoxy)pyrido[4,3-d]pyrimidin-4-yl)-7-methyl-5-azaspiro[2.5]octan-7-ol], for which the IC50 in assay [1] turned out to be 5 nM; in assay [2], 6 nM; in assay [3] (setting [4]) it was 0.341 µM.

For `Oc1cc(Cl)c(C2CC2)c(-c2ncc3c(N4CCCC5(CCO5)C4)nc(OC[C@@]45CCCN4C[C@H](F)C5)nc3c2F)c1` (stereo partly drawn) [Example 26, 3-Chloro-4-cyclopropyl-5-(8-fluoro-2-(((2R,7aS)-2-fluorotetrahydro-1H-pyrrolizin-7a(5H)-yl)methoxy)-4-(1-oxa-6-azaspiro[3.5]nonan-6-yl)pyrido[4,3-d]pyrimidin-7-yl)phenol], the half-maximal inhibitory concentration (IC50) worked out at 1 nM in assay [1], 2 nM in assay [2] and 0.066 µM in assay [3] (setting [4]).

For `Oc1cc(-c2ncc3c(N4CCCC5(CCO5)C4)nc(OC[C@@]45CCCN4C[C@H](F)C5)nc3c2F)c2c(F)c(F)ccc2c1` (single isomer, unassigned) [Example 24], the half-maximal inhibitory concentration (IC50) stood at 1 nM in assay [1], 2 nM in assay [2] and 0.009 µM in assay [3] (setting [4]).

`CCc1c(F)ccc2cc(O)cc(-c3ncc4c(N5CCCC6(COC(=O)O6)C5)nc(OC[C@@]56CCCN5C[C@H](F)C6)nc4c3F)c12` (single isomer, unassigned) [Example 68]: the IC50 in assay [1] stood at 23 nM; in assay [2], 11 nM; in assay [3] (setting [5]), 1.58 µM.

For the molecule `Oc1cc(-c2ncc3c(N4CCCC5(CCO5)C4)nc(OC[C@@]45CCCN4C[C@H](F)C5)nc3c2F)c2c(Cl)cccc2c1` (single isomer, unassigned) [Example 59], the half-inhibitory concentration (IC50) in assay [1] came out at 3 nM; in assay [2] it was 2 nM; in assay [3] (setting [4]), 0.006 µM.

Turning to `Oc1cc(-c2ncc3c(N4CCCC5(CC(O)C5)C4)nc(OC[C@@]45CCCN4C[C@H](F)C5)nc3c2F)c2c(F)c(F)ccc2c1` (single isomer, unassigned) [Example 12], the figures for the IC50 in assay [1], in assay [2] and in assay [3] (setting [5]) were 2 nM, 2 nM and 0.121 µM, respectively.

For `C#Cc1c(F)ccc2cccc(-c3ncc4c(N5CCCC6(CNC(=O)C6)C5)nc(OC[C@@]56CCCN5C[C@H](F)C6)nc4c3F)c12` (stereo partly drawn) [Example 29, 7-(7-(8-Ethynyl-7-fluoronaphthalen-1-yl)-8-fluoro-2-(((2R,7aS)-2-fluorotetrahydro-1H-pyrrolizin-7a(5H)-yl)methoxy)pyrido[4,3-d]pyrimidin-4-yl)-2,7-diazaspiro[4.5]decan-3-one], the IC50 in assay [1] was 10 nM; in assay [2] it was 9 nM; in assay [3] (setting [4]) it was 2.04 µM.

Regarding `CCc1c(F)ccc2cc(O)cc(-c3ncc4c(N5CCCC6(COC(=O)N6)C5)nc(OC[C@@]56CCCN5C[C@H](F)C6)nc4c3F)c12` (stereo partly drawn) [Example 40, 7-(7-(8-Ethyl-7-fluoro-3-hydroxynaphthalen-1-yl)-8-fluoro-2-(((2R,7aS)-2-fluorotetrahydro-1H-pyrrolizin-7a(5H)-yl)methoxy)pyrido[4,3-d]pyrimidin-4-yl)-3-oxa-1,7-diazaspiro[4.5]decan-2-one], the IC50 came out at 3 nM in assay [1], 4 nM in assay [2] and 4.32 µM in assay [3] (setting [4]).

Consider `O=C1NCC2(CCCN(c3nc(OC[C@@]45CCCN4C[C@H](F)C5)nc4c(F)c(-c5cc(O)cc6ccc(F)c(F)c56)ncc34)C2)O1` (single isomer, unassigned) [Example 18], for which the IC50 was found to be 1 nM in assay [1], 1 nM in assay [2] and 0.31 µM in assay [3] (setting [4]).

Take `CCc1c(F)ccc2cc(O)cc(-c3ncc4c(N5CCCC6(CNC6=O)C5)nc(OC[C@@]56CCCN5C[C@H](F)C6)nc4c3F)c12` (single isomer, unassigned) [Example 45]: the IC50 in assay [1] was found to be 3 nM; in assay [2], 5 nM; in assay [3] (setting [4]), 0.161 µM.

For the molecule `CCc1c(F)ccc2cc(O)cc(-c3ncc4c(N5CCOC6(CC6)C5)nc(OC[C@@]56CCCN5C[C@H](F)C6)nc4c3F)c12` [Example 2, 5-Ethyl-6-fluoro-4-(8-fluoro-2-(((2R,7aS)-2-fluorotetrahydro-1H-pyrrolizin-7a(5H)-yl)methoxy)-4-(4-oxa-7-azaspiro[2.5]octan-7-yl)pyrido[4,3-d]pyrimidin-7-yl)naphthalen-2-ol], the IC50 in assay [1] was found to be 8 nM; in assay [2] it was 4 nM; in assay [3] (setting [4]), 0.523 µM.

`CCc1c(F)ccc2cc(O)cc(-c3ncc4c(N5CCCC6(CCS(=N)(=O)C6)C5)nc(OC[C@@]56CCCN5C[C@H](F)C6)nc4c3F)c12` (stereo partly drawn) [Example 39, 7-(7-(8-Ethyl-7-fluoro-3-hydroxynaphthalen-1-yl)-8-fluoro-2-(((2R,7aS)-2-fluorotetrahydro-1H-pyrrolizin-7a(5H)-yl)methoxy)pyrido[4,3-d]pyrimidin-4-yl)-2-imino-216-thia-7-azaspiro[4.5]decane 2-oxide]: the figures for the IC50 in assay [1], in assay [2] and in assay [3] (setting [4]) were 2 nM, 3 nM and 2.53 µM, respectively.

`CCc1c(F)ccc2cc(O)cc(-c3ncc4c(N5CCCC6(C5)CC(C)(O)C6)nc(OC[C@@]56CCCN5C[C@H](F)C6)nc4c3F)c12` (single isomer, unassigned) [Example 57]: the 50% inhibitory concentration (IC50) in assay [1] amounted to 6 nM; in assay [2] it was 10 nM; in assay [3] (setting [5]), 0.131 µM.

In the case of `CCc1c(F)ccc2cc(O)cc(-c3ncc4c(N5CCOCC6(CC(=O)N6)C5)nc(OC[C@@]56CCCN5C[C@H](F)C6)nc4c3F)c12` (stereo partly drawn) [Example 53, 9-(7-(8-Ethyl-7-fluoro-3-hydroxynaphthalen-1-yl)-8-fluoro-2-(((2R,7aS)-2-fluorotetrahydro-1H-pyrrolizin-7a(5H)-yl)methoxy)pyrido[4,3-d]pyrimidin-4-yl)-6-oxa-1,9-diazaspiro[3.6]decan-2-one], the figures for the half-maximal inhibitory concentration (IC50) in assay [1], in assay [2] and in assay [3] (setting [4]) were 2 nM, 2 nM and 0.182 µM, respectively.

Consider `CCc1c(F)ccc2cccc(-c3ncc4c(N5CCCC6(CNC(=O)O6)C5)nc(OC[C@@]56CCCN5C[C@H](F)C6)nc4c3F)c12` (single isomer, unassigned) [Example 63], for which the figures for the half-inhibitory concentration (IC50) in assay [1], in assay [2] and in assay [3] (setting [4]) were 4 nM, 2 nM and 0.026 µM, respectively.

In the case of `CCc1c(F)ccc2cc(O)cc(-c3ncc4c(N5CCCC6(C5)CC(C)(O)C6)nc(OC[C@@]56CCCN5C[C@H](F)C6)nc4c3F)c12` (single isomer, unassigned) [Example 56], the half-inhibitory concentration (IC50) in assay [1] came to 4 nM; in assay [2] it was 6 nM; in assay [3] (setting [5]), 0.343 µM.

Consider `CCc1c(F)ccc2cccc(-c3ncc4c(N5CCCC6(CNC(=O)C6)C5)nc(OC[C@@]56CCCN5C[C@H](F)C6)nc4c3F)c12` (stereo partly drawn) [Example 30, 7-(7-(8-Ethyl-7-fluoronaphthalen-1-yl)-8-fluoro-2-(((2R,7aS)-2-fluorotetrahydro-1H-pyrrolizin-7a(5H)-yl)methoxy)pyrido[4,3-d]pyrimidin-4-yl)-2,7-diazaspiro[4.5]decan-3-one], for which the results for the IC50 in assay [1], in assay [2] and in assay [3] (setting [4]) were 19 nM, 16 nM and 1.98 µM, respectively.

For the molecule `CCc1c(F)ccc2cc(O)cc(-c3ncc4c(N5CCCC6(CC(=O)N6)C5)nc(OC[C@@]56CCCN5C[C@H](F)C6)nc4c3F)c12` (single isomer, unassigned) [Example 9], the IC50 was 2 nM in assay [1], 5 nM in assay [2] and 1.99 µM in assay [3] (setting [5]).

By IC50 is commonly meant the midpoint of a concentration-inhibition curve.
